By AC50 is commonly meant the concentration at which the activity in the assay is half-maximal. High values mean activity only at high concentration, low ones activity at low concentration.

Among the data in ChEMBL document CHEMBL5291721, “A preclinical secondary pharmacology resource illuminates target-adverse drug reaction associations of marketed drugs” (Nat Commun, 2023) are AC50 values, retold here.

Some results are limits rather than exact numbers.

In one test the target is Melanocortin receptor 4 (Homo sapiens, UniProt P32245).
Chain of Melanocortin receptor 4 (P32245 whole entry): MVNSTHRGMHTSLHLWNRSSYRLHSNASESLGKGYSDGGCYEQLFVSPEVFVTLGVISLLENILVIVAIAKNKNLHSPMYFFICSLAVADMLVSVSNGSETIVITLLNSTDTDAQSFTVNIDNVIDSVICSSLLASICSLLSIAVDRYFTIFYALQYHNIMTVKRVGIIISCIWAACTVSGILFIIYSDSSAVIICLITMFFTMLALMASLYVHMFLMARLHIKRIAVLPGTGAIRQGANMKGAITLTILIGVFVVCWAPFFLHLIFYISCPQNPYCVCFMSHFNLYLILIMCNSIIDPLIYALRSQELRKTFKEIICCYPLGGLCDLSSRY
The target in test [1] is Prostaglandin G/H synthase 1 (Homo sapiens, UniProt P23219). Format: functional.
Chain of Prostaglandin G/H synthase 1 (Homo sapiens, UniProt P23219) (P23219 whole entry): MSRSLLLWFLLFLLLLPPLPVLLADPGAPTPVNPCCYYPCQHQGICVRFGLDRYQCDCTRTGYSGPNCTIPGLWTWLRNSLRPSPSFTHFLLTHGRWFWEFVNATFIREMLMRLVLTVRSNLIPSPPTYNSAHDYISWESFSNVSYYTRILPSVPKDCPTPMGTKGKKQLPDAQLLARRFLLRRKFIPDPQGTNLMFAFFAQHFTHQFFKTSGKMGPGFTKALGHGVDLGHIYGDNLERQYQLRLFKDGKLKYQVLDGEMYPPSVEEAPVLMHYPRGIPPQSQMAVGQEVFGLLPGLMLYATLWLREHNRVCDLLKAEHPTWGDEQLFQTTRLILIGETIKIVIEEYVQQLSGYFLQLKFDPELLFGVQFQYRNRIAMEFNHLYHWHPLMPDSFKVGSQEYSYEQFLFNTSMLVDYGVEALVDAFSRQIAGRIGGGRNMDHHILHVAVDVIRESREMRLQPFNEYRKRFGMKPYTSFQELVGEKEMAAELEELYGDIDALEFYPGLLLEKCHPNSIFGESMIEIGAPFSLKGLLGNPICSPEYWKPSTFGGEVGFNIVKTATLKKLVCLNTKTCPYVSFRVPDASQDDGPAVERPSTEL
The target in test [2] is 3',5'-cyclic-AMP phosphodiesterase 4D (Homo sapiens, UniProt Q08499). In kind it is functional.
Chain of 3',5'-cyclic-AMP phosphodiesterase 4D (Q08499 whole entry): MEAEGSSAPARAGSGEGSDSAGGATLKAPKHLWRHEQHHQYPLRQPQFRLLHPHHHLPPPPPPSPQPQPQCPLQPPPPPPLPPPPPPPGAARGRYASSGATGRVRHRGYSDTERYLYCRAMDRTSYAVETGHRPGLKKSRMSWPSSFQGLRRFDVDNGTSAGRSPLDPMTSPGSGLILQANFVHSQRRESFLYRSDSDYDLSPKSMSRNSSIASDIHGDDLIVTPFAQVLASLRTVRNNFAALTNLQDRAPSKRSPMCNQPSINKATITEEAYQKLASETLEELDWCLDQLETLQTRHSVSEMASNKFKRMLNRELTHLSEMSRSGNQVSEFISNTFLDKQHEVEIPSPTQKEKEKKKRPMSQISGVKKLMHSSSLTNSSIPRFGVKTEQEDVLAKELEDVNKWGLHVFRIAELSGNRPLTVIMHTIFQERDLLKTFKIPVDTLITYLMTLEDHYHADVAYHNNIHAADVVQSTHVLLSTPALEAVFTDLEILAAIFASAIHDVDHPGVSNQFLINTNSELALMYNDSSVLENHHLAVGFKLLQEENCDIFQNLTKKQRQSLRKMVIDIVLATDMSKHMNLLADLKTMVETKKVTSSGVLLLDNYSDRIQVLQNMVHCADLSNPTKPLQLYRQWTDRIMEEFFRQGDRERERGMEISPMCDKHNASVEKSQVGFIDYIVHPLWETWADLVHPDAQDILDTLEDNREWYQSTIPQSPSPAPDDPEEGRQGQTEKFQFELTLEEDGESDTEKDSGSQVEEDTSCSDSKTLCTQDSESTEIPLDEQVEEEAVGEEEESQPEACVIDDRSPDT
For another test, the target named is T1, Progesterone receptor (Homo sapiens, UniProt P06401).
T1 sequence (P06401 whole entry): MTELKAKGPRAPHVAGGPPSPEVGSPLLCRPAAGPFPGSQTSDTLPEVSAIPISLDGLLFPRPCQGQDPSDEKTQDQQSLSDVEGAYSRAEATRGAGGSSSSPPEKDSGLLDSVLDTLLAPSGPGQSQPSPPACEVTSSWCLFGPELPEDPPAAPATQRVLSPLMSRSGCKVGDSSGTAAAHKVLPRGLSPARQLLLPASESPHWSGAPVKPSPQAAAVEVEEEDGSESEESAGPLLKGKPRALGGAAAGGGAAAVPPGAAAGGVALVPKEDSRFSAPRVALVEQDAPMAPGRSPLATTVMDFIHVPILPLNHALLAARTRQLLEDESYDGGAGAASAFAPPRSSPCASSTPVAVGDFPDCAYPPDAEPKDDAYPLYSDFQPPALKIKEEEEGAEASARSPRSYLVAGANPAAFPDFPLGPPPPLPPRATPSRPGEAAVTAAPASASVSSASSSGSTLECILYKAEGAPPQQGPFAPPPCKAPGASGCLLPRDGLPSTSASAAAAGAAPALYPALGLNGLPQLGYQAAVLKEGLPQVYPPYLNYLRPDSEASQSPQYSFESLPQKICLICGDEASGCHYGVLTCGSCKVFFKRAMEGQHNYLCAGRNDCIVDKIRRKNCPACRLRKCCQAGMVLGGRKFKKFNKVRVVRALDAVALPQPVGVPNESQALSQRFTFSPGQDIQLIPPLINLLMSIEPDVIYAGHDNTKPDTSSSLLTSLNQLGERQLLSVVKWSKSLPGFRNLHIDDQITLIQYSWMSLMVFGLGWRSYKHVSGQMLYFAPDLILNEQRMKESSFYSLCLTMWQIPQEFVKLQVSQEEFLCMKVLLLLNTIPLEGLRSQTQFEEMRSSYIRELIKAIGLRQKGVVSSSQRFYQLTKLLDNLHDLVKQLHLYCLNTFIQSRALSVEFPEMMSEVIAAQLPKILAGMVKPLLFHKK

In test [3] the target is T2, Type-1 angiotensin II receptor (Homo sapiens, UniProt P30556).
T2 sequence (P30556 whole entry): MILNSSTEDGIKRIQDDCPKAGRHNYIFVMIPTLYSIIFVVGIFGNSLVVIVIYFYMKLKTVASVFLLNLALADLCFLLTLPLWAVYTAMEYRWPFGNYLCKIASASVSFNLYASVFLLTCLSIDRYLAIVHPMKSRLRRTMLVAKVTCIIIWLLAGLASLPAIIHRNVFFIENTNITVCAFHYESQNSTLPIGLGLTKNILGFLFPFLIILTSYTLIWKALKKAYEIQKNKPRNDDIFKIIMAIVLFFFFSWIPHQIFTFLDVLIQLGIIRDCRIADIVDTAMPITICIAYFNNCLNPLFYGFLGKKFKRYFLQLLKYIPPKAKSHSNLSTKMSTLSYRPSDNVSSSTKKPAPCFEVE

Test [4] concerns the target Gamma-aminobutyric acid receptor subunit alpha-1 (Rattus norvegicus, UniProt P62813).
Test [5] deals with T3, Prostaglandin G/H synthase 1 (Rattus norvegicus, UniProt Q63921).
T3 sequence (Q63921 whole entry): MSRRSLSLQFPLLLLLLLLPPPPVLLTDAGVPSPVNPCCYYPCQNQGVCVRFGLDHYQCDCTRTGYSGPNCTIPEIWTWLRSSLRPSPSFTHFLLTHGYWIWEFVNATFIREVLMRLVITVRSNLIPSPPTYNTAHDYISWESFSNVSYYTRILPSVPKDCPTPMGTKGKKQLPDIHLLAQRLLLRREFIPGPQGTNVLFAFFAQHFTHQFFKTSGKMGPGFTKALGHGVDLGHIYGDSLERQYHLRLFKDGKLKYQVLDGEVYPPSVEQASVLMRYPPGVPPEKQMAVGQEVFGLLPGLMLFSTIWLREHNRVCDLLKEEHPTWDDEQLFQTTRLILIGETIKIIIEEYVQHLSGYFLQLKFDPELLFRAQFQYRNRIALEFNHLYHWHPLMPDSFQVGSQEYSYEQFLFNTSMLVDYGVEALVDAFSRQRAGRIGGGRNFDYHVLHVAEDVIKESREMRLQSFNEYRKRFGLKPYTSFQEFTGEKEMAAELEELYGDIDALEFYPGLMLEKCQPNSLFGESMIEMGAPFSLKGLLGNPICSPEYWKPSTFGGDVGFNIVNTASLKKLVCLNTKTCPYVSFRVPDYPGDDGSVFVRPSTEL
In kind it is functional.

Test [6] has as its target T4, Alpha-1A adrenergic receptor (Homo sapiens, UniProt P35348).
T4 sequence (P35348 whole entry): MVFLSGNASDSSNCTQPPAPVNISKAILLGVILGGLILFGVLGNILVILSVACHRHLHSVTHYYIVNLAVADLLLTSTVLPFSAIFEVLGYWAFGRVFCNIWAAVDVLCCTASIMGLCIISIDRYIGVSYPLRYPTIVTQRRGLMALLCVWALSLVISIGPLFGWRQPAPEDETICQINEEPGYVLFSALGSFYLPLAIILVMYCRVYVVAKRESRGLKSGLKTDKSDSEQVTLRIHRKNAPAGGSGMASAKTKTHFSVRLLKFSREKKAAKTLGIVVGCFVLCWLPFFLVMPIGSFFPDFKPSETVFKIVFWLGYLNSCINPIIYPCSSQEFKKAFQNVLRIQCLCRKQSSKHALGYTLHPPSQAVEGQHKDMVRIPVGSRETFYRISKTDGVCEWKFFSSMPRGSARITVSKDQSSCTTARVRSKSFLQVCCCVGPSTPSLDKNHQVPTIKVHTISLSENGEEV
In kind it is functional, cell-based.

Test [7] concerns the target T4, Alpha-1A adrenergic receptor. Format: functional, cell-based. The source holds these as a separate data set.
Further: assay procedure not described here.

Chain of Gamma-aminobutyric acid receptor subunit alpha-1 (P62813 whole entry): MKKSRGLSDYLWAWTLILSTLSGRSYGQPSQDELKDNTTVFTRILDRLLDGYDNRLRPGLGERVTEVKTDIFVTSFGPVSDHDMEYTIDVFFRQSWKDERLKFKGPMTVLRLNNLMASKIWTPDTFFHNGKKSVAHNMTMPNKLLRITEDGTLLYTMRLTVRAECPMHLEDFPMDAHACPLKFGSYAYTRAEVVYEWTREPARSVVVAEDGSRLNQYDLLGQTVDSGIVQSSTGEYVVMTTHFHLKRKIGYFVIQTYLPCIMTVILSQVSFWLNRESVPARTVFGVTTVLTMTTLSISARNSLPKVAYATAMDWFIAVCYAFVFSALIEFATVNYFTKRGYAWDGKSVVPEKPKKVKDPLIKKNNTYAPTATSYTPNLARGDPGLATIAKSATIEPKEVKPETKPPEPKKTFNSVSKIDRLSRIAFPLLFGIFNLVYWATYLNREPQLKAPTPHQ

Consider `O=C(/C=C/c1cccc(S(=O)(=O)Nc2ccccc2)c1)NO` [BELINOSTAT], for which the AC50 on Melanocortin receptor 4 is greater than 30 µM; in [1], 6.9 µM; in test [2], 7.1 µM; on Progesterone receptor it was greater than 30 µM; in test [3] it was greater than 30 µM; in test [4] it was greater than 10 µM.
For the compound `C[C@]12C=CC(=O)C=C1CC[C@@H]1[C@@H]2CC[C@]2(C)OC(=O)CC[C@@H]12` [TESTOLACTONE], the AC50 at Melanocortin receptor 4 was greater than 10 µM; in test [5], greater than 10 µM; in [2] it was greater than 30 µM; in test [6], greater than 30 µM; in test [3], greater than 10 µM; in test [4], greater than 10 µM.
Turning to `O=C1c2ccccc2C(=O)C1c1ccccc1` [PHENINDIONE], the AC50 is greater than 10 µM at Melanocortin receptor 4; greater than 10 µM in [5]; greater than 30 µM in test [2]; greater than 30 µM in [6]; greater than 10 µM in [3]; greater than 10 µM in [4].
Turning to `CC(=O)O[C@]1(C(C)=O)CC[C@H]2[C@@H]3C=C(Cl)C4=CC(=O)[C@@H]5C[C@@H]5[C@]4(C)[C@H]3CC[C@@]21C` [CYPROTERONE ACETATE], the AC50 (at Melanocortin receptor 4; in [1]; in test [7]; in [5]; in [2]; in [3]) was greater than 30 µM each time. Further, the AC50 in test [4] was greater than 10 µM.
Take `CN(Cc1cnc2nc(N)nc(N)c2n1)c1ccc(C(=O)N[C@@H](CCC(=O)O)C(=O)O)cc1` [METHOTREXATE]: the concentration at half-maximal activity (AC50) is greater than 30 µM at Melanocortin receptor 4; greater than 30 µM in test [5]; greater than 30 µM in test [2]; greater than 30 µM in [6]; greater than 30 µM in test [3]; greater than 10 µM in test [4].
On to `C[C@@H]1C[C@H]2[C@@H]3C[C@H](F)C4=CC(=O)C=C[C@]4(C)[C@@]3(F)[C@@H](O)C[C@]2(C)[C@@]1(OC(=O)c1ccco1)C(=O)SCF` [FLUTICASONE FUROATE], for which the concentration at half-maximal activity (AC50) at Melanocortin receptor 4 was greater than 10 µM; in [1] it was 9.89 µM; in [7] it was greater than 30 µM; in test [5], greater than 10 µM; in test [2] it was greater than 30 µM; in test [6], greater than 30 µM. Further, the results for the half-maximal activity concentration (AC50) in [3] and in test [4] were greater than 10 µM and greater than 30 µM, respectively.
Take `C[C@]12CCC(=O)C[C@@H]1CC[C@@H]1[C@@H]2CC[C@]2(C)[C@@H](O)CC[C@@H]12` [STANOLONE]: the AC50 (at Melanocortin receptor 4; in test [5]; in [2]; in test [6]; in test [3]; in test [4]) was greater than 30 µM in each case.
On to `CN(C)CCCN1c2ccccc2CCc2ccccc21` [IMIPRAMINE], for which the half-maximal activity concentration (AC50) at Melanocortin receptor 4 was 21.4 µM; in test [5], greater than 30 µM; in test [2], greater than 10 µM; in test [6], 0.41 µM; in test [3], greater than 30 µM; in [4], greater than 10 µM.
Take `O=C(O)COCCN1CCN(C(c2ccccc2)c2ccc(Cl)cc2)CC1` (stereo not given) [CETIRIZINE]: the half-maximal activity concentration (AC50) (on Melanocortin receptor 4; in test [7]; in test [2]; at Progesterone receptor; in test [6]; in [3]) was greater than 30 µM each time.
For the compound `CCC[C@@H]1C[C@@H](C(=O)N[C@@H]([C@H]2O[C@H](SC)[C@H](O)[C@@H](O)[C@H]2O)[C@@H](C)O)N(C)C1` [LINCOMYCIN], the half-maximal activity concentration (AC50) at Melanocortin receptor 4 was greater than 10 µM; in test [5], greater than 10 µM; in test [2] it was greater than 30 µM; in test [6] it was greater than 30 µM; in test [3], greater than 10 µM; in [4], greater than 10 µM.
`CC(O)(CS(=O)(=O)c1ccc(F)cc1)C(=O)Nc1ccc(C#N)c(C(F)(F)F)c1` (stereo not given) [BICALUTAMIDE]: the AC50 on Melanocortin receptor 4 was greater than 30 µM; in [1] it was greater than 30 µM; in [7], greater than 10 µM; in [5], greater than 30 µM; in test [2] it was greater than 30 µM; on Progesterone receptor, 0.46 µM. Also, the concentration at half-maximal activity (AC50) in [6] is greater than 30 µM; in test [3], greater than 30 µM; in [4], greater than 10 µM.
Turning to `COC(=O)[C@H]1[C@H]2C[C@@H]3c4[nH]c5cc(OC)ccc5c4CCN3C[C@H]2C[C@@H](OC(=O)c2cc(OC)c(OC)c(OC)c2)[C@@H]1OC` [RESERPINE], the AC50 at Melanocortin receptor 4 is greater than 10 µM; in test [1], greater than 30 µM; in test [7], greater than 30 µM; in test [5], 18.8 µM; in test [2] it was greater than 30 µM; at Progesterone receptor, greater than 30 µM. The AC50 in [3] and in test [4] was greater than 10 µM throughout.
